Activity calls are given as the source filed them. The rule behind the calls is not given here.
Columns and labels:
[1] = test system: Micrococcus lylae; experiment: Antibacterial activity against Micrococcus lylae at 6.25 to 200 ug/ml after 24 hrs by microwell dilution method; format: functional, organism-based
[2] = test system: Pseudomonas aeruginosa; experiment: Antibacterial activity against Pseudomonas aeruginosa at 6.25 to 200 ug/ml after 24 hrs by microwell dilution method; format: functional, organism-based
[3] = test system: Proteus vulgaris; experiment: Antibacterial activity against Proteus vulgaris at 6.25 to 200 ug/ml after 24 hrs by microwell dilution method; format: functional, organism-based
[4] = test system: Escherichia coli; experiment: Antibacterial activity against Escherichia coli at 6.25 to 200 ug/ml after 24 hrs by microwell dilution method; format: functional, organism-based
[5] = test system: Staphylococcus cohnii; experiment: Antibacterial activity against Staphylococcus cohnii at 6.25 to 200 ug/ml after 24 hrs by microwell dilution assay; format: functional, organism-based
[6] = test system: Staphylococcus aureus; experiment: Antibacterial activity against Staphylococcus aureus at 6.25 to 200 ug/ml after 24 hrs by microwell dilution assay; format: functional, organism-based
[7] = test system: Micrococcus luteus; experiment: Antibacterial activity against Micrococcus luteus at 6.25 to 200 ug/ml after 24 hrs by microwell dilution method; format: functional, organism-based
[8] = test system: Aspergillus; experiment: Antifungal activity against Aspergillus at 10 mg/ml after 72 hrs by disc diffusion method; format: functional, organism-based
[9] = test system: Pichia membranifaciens; experiment: Antifungal activity against Pichia membranifaciens at 10 mg/ml after 48 hrs by disc diffusion method; format: functional, organism-based
[10] = test system: Kluyveromyces marxianus; experiment: Antifungal activity against Kluyveromyces marxianus at 10 mg/ml after 48 hrs by disc diffusion method; format: functional, organism-based
[11] = test system: Schwanniomyces occidentalis; experiment: Antifungal activity against Schwanniomyces occidentalis at 10 mg/ml after 48 hrs by disc diffusion method; format: functional, organism-based
[12] = test system: Nakaseomyces glabratus; experiment: Antifungal activity against Candida glabrata at 10 mg/ml after 48 hrs by disc diffusion method; format: functional, organism-based
[13] = test system: Candida parapsilosis; experiment: Antifungal activity against Candida parapsilosis at 10 mg/ml after 48 hrs by disc diffusion method; format: functional, organism-based
[14] = test system: Candida tropicalis; experiment: Antifungal activity against Candida tropicalis at 10 mg/ml after 48 hrs by disc diffusion method; format: functional, organism-based
[15] = test system: Candida albicans; experiment: Antifungal activity against Candida albicans at 10 mg/ml after 48 hrs by disc diffusion method; format: functional, organism-based
[16] = test system: Photorhabdus luminescens; experiment: Antibacterial activity against Photorhabdus luminescens at 10 mg/ml after 24 hrs by disc diffusion method; format: functional, organism-based
[17] = test system: Klebsiella aerogenes; experiment: Antibacterial activity against Enterobacter aerogenes at 6.25 to 200 ug/ml after 24 hrs by microwell dilution method; format: functional, organism-based
[18] = test system: Photorhabdus luminescens; experiment: Antibacterial activity against Photorhabdus luminescens at 6.25 to 200 ug/ml after 24 hrs by microwell dilution method; format: functional, organism-based
[19] = test system: Acinetobacter radioresistens; experiment: Antibacterial activity against Acinetobacter radioresistens at 6.25 to 200 ug/ml after 24 hrs by microwell dilution method; format: functional, organism-based
[20] = test system: Salmonella paratyphi; experiment: Antibacterial activity against Salmonella paratyphi at 6.25 to 200 ug/ml after 24 hrs by microwell dilution method; format: functional, organism-based; conditions: Salmonella enterica subsp. enterica serovar Paratyphi A
[21] = test system: Klebsiella aerogenes; experiment: Antibacterial activity against Enterobacter aerogenes at 10 mg/ml after 24 hrs by disc diffusion method; format: functional, organism-based
[22] = test system: Acinetobacter radioresistens; experiment: Antibacterial activity against Acinetobacter radioresistens at 10 mg/ml after 24 hrs by disc diffusion method; format: functional, organism-based
[23] = test system: Salmonella paratyphi; experiment: Antibacterial activity against Salmonella paratyphi at 10 mg/ml after 24 hrs by disc diffusion method; format: functional, organism-based; conditions: Salmonella enterica subsp. enterica serovar Paratyphi A
[24] = test system: Micrococcus lylae; experiment: Antibacterial activity against Micrococcus lylae at 10 mg/ml after 24 hrs by disc diffusion method; format: functional, organism-based
[25] = test system: Pseudomonas aeruginosa; experiment: Antibacterial activity against Pseudomonas aeruginosa at 10 mg/ml after 24 hrs by disc diffusion method; format: functional, organism-based
[26] = test system: Escherichia coli; experiment: Antibacterial activity against Escherichia coli at 10 mg/ml after 24 hrs by disc diffusion method; format: functional, organism-based
[27] = test system: Proteus vulgaris; experiment: Antibacterial activity against Proteus vulgaris at 10 mg/ml after 24 hrs by disc diffusion method; format: functional, organism-based
[28] = test system: Micrococcus luteus; experiment: Antibacterial activity against Micrococcus luteus at 10 mg/ml after 24 hrs by disc diffusion method; format: functional, organism-based
[29] = test system: Staphylococcus aureus; experiment: Antibacterial activity against Staphylococcus aureus at 10 mg/ml after 24 hrs by disc diffusion method; format: functional
[30] = test system: Staphylococcus cohnii; experiment: Antibacterial activity against Staphylococcus cohnii at 10 mg/ml after 24 hrs by disc diffusion method; format: functional
[31] = test system: Hepacivirus hominis; experiment: Inhibition of HCV N-terminal His-tagged NS5B RNA dependent RNA polymerase expressed in Escherichia coli DH5alpha using poly rA/U12 as primer at 200 uM after 60 mins by liquid scintillation counting

Structure (SMILES) | Activity [1] | Activity [2] | Activity [3] | Activity [4] | Activity [5] | Activity [6] | Activity [7] | Activity [8] | Activity [9] | Activity [10] | Activity [11] | Activity [12] | Activity [13] | Activity [14] | Activity [15] | Activity [16] | Activity [17] | Activity [18] | Activity [19] | Activity [20] | further results
CC(C(=O)N/N=C/c1ccccc1Cl)c1ccc(-c2ccccc2)c(F)c1 (stereo not given) | inactive | inactive | inactive | inactive | inactive | inactive | inactive | inactive | inactive | inactive | inactive | inactive | inactive | inactive | inactive | inactive | inactive | inactive | inactive | inactive | Activity [21]: inactive; Activity [22]: inactive; Activity [23]: inactive; Activity [24]: inactive; Activity [25]: inactive; Activity [26]: inactive; Activity [27]: inactive; Activity [28]: inactive; Activity [29]: inactive; Activity [30]: inactive; inhibition [31]: 8%
CCCNC(=S)NNC(=O)C(C)c1ccc(-c2ccccc2)c(F)c1 (stereo not given) | inactive | inactive | inactive | inactive | inactive | inactive | inactive | inactive | inactive | inactive | inactive | inactive | inactive | inactive | inactive | inactive | inactive | inactive | inactive | inactive | Activity [21]: inactive; Activity [22]: inactive; Activity [23]: inactive; Activity [24]: inactive; Activity [25]: inactive; Activity [26]: inactive; Activity [27]: inactive; Activity [28]: inactive; Activity [29]: inactive; Activity [30]: inactive; inhibition [31]: 8%
CCCCNC(=S)NNC(=O)C(C)c1ccc(-c2ccccc2)c(F)c1 (stereo not given) | inactive | inactive | inactive | inactive | inactive | inactive | inactive | inactive | inactive | inactive | inactive | inactive | inactive | inactive | inactive | inactive | inactive | inactive | inactive | inactive | Activity [21]: inactive; Activity [22]: inactive; Activity [23]: inactive; Activity [24]: inactive; Activity [25]: inactive; Activity [26]: inactive; Activity [27]: inactive; Activity [28]: inactive; Activity [29]: inactive; Activity [30]: inactive; inhibition [31]: 70%
C=CCN1C(=O)CS/C1=N\NC(=O)C(C)c1ccc(-c2ccccc2)c(F)c1 (stereo not given) | inactive | inactive | inactive | inactive | inactive | inactive | inactive | inactive | inactive | inactive | inactive | inactive | inactive | inactive | inactive | inactive | inactive | inactive | inactive | inactive | Activity [21]: inactive; Activity [22]: inactive; Activity [23]: inactive; Activity [24]: inactive; Activity [25]: inactive; Activity [26]: inactive; Activity [27]: inactive; Activity [28]: inactive; Activity [29]: inactive; Activity [30]: inactive; inhibition [31]: 8%
CC(C(=O)NN1C(=O)CSC1c1ccccc1F)c1ccc(-c2ccccc2)c(F)c1 (stereo not given) | inactive | inactive | inactive | inactive | inactive | inactive | inactive | inactive | inactive | inactive | inactive | inactive | inactive | inactive | inactive | inactive | inactive | inactive | inactive | inactive | Activity [21]: inactive; Activity [22]: inactive; Activity [23]: inactive; Activity [24]: inactive; Activity [25]: inactive; Activity [26]: inactive; Activity [27]: inactive; Activity [28]: inactive; Activity [29]: inactive; Activity [30]: inactive; inhibition [31]: 8%
